Laboratory results published in ChEMBL document CHEMBL1138732, “Evans Blue is an inhibitor of nuclear factor-kappa B (NF-kappaB)-DNA binding” (Bioorg Med Chem Lett, 2004).

Target: T1, Nuclear factor NF-kappa-B p105 subunit (Homo sapiens) (UniProt P19838)
T1 sequence (whole entry): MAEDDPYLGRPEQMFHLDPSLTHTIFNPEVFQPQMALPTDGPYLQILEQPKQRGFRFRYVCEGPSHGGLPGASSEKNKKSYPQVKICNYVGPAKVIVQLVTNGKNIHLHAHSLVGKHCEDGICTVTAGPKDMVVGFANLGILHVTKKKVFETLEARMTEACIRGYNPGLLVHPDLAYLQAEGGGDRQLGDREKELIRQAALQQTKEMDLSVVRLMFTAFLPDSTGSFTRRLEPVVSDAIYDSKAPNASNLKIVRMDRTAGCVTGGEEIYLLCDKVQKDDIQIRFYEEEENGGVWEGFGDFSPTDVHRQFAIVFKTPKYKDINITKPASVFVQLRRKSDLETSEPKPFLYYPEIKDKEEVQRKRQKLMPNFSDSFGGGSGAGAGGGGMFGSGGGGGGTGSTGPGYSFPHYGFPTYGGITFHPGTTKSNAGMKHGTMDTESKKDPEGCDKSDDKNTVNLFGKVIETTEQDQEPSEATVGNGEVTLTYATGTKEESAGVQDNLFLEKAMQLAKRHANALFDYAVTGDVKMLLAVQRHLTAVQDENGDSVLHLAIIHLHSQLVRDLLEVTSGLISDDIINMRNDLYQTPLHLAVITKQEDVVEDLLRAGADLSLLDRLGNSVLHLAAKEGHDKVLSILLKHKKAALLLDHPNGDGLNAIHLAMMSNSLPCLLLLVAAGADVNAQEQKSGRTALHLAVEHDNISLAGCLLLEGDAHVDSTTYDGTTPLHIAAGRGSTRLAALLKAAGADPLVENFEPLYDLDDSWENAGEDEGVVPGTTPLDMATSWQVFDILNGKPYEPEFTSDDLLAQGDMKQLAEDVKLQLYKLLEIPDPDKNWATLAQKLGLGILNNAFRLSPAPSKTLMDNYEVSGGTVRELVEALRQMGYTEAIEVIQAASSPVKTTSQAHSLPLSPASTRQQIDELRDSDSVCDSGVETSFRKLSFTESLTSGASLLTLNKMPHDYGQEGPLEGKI
Test: inhibitory effect on the DNA binding of Nuclear factor kappa B; Active

- Concentration: 100 µM
SMILES: Cc1cc(-c2ccc(/N=N/c3ccc4c(S(=O)(=O)O)cc(S(=O)(=O)O)c(N)c4c3O)c(C)c2)ccc1/N=N/c1ccc2c(S(=O)(=O)O)cc(S(=O)(=O)O)c(N)c2c1O
